Test results as given in the supplement of paper PMC10307832.

What was measured:
Experiment in all cases: relative viability (nuclei count vs DMSO), 5 days (fraction); higher = more cells survive
Bromopyruvate + OSI-027 = compound: C(C(=O)C(=O)O)Br [Bromopyruvate] + COc1cccc2cc(-c3nc([C@H]4CC[C@H](C(=O)O)CC4)n4ncnc(N)c34)[nH]c12 [OSI-027] (partner 0.5 µM)
Method in brief: (§1)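 Five library-drug doses in √10 steps were combined with a fixed anchor-drug dose, or a single drug was given alone, by pin tool to lung cancer cell lines in 1536-well plates the day after seeding. Nuclei were stained and counted after 5 days. Relative viability is the nuclei count in treated wells over that in vehicle wells, taken as the median of duplicate plates.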

Bicalutamide + Lapatinib = compound: CC(O)(CS(=O)(=O)c1ccc(F)cc1)C(=O)Nc1ccc(C#N)c(C(F)(F)F)c1 [Bicalutamide] + CS(=O)(=O)CCNCc1ccc(-c2ccc3ncnc(Nc4ccc(OCc5cccc(F)c5)c(Cl)c4)c3c2)o1 [Lapatinib] (partner 2 µM)
Method in brief: as §1

Bicalutamide + Dasatinib = compound: CC(O)(CS(=O)(=O)c1ccc(F)cc1)C(=O)Nc1ccc(C#N)c(C(F)(F)F)c1 [Bicalutamide] + Cc1nc(Nc2ncc(C(=O)Nc3c(C)cccc3Cl)s2)cc(N2CCN(CCO)CC2)n1 [Dasatinib] (partner 0.075 µM)
Method in brief: as §1

[1] = compound: C(C(=O)C(=O)O)Br [Bromopyruvate] + CS(=O)(=O)N1CCN(Cc2cc3nc(-c4cccc5[nH]ncc45)nc(N4CCOCC4)c3s2)CC1 [Pictilisib] (partner 1 µM)
Method in brief: as §1

Cell Line	relative viability (Bromopyruvate + OSI-027; first compound 1 µM)	relative viability (Bromopyruvate + OSI-027; first compound 3.162 µM)	relative viability (Bromopyruvate + OSI-027; first compound 10 µM)	relative viability (Bromopyruvate + OSI-027; first compound 31.62 µM)	relative viability (Bromopyruvate + OSI-027; first compound 100 µM)	relative viability (Bicalutamide + Lapatinib; first compound 0.08 µM)	relative viability (Bicalutamide + Lapatinib; first compound 0.253 µM)	relative viability (Bicalutamide + Lapatinib; first compound 0.8 µM)	relative viability (Bicalutamide + Lapatinib; first compound 2.53 µM)	relative viability (Bicalutamide + Dasatinib; first compound 0.08 µM)	relative viability (Bicalutamide + Dasatinib; first compound 0.253 µM)	relative viability (Bicalutamide + Dasatinib; first compound 0.8 µM)	relative viability (Bicalutamide + Dasatinib; first compound 2.53 µM)	relative viability ([1]; first compound 1 µM)	relative viability ([1]; first compound 3.162 µM)	relative viability ([1]; first compound 10 µM)	relative viability ([1]; first compound 31.62 µM)	relative viability ([1]; first compound 100 µM)
NCI-H2405	0.585	0.659	0.634	0.556	0.663	1.2	1.01	1.16	0.852	0.23	0.199	0.235	0.154	0.441	0.524	0.431	0.349	0.517
NCI-H2009	0.6	0.66	0.669	0.545	0.305	1.23	0.997	1.2	0.758	0.337	0.321	0.278	0.222	0.764	0.831	0.742	0.709	0.613
PC-14	0.788	0.837	1.37	0.825	0.841	0.301	0.295	0.452	0.297	0.263	0.223	0.264	0.18	0.714	0.692	0.898	0.808	0.611
HARA	0.518	0.567	0.624	0.436	0.571	0.841	0.514	0.904	0.701	0.273	0.248	0.314	0.265	0.276	0.47	0.332	0.485	0.449
NCI-H2126	0.756	0.707	0.65	0.668	0.824	0.686	0.697	0.74	0.753	0.628	0.581	0.632	0.555	0.531	0.511	0.456	0.562	0.509
NCI-H1437	0.921	0.861	0.943	0.909	0.847	0.826	0.736	1.01	0.711	0.412	0.406	0.466	0.447	0.464	0.502	0.47	0.413	0.496
NCI-H1792	0.798	0.79	0.782	–	0.649	0.958	0.858	1.03	0.91	0.84	0.509	1.06	0.856	0.306	0.29	0.328	0.317	0.212
NCI-H661	0.719	0.67	0.685	0.64	0.749	0.482	0.493	0.447	0.493	0.95	0.844	1.03	0.722	0.445	0.349	0.458	0.337	0.354
COR-L23	0.817	0.879	0.977	0.705	0.401	0.941	0.921	1.2	0.998	0.628	0.513	0.407	0.476	0.763	0.772	0.98	0.673	0.524
COR-L 105	0.563	0.701	0.712	0.671	0.639	0.333	0.353	0.39	0.311	0.325	0.257	0.325	0.285	0.524	0.371	0.361	0.434	0.379
LK-2	0.235	0.2	0.21	0.223	0.218	0.901	0.852	1.11	0.898	0.283	0.224	0.261	0.293	0.548	0.526	0.59	0.704	0.642
201T	0.508	0.752	0.71	0.763	0.638	1.07	0.95	1.06	1.02	0.575	0.566	0.581	0.57	0.724	0.692	0.626	0.683	0.7
NCI-H647	0.618	0.744	0.689	0.653	0.633	1.07	0.954	1.75	0.748	0.187	0.173	0.208	0.139	0.433	0.421	0.393	0.474	0.455
H3255	0.523	0.637	0.683	0.679	0.573	0.112	0.239	0.315	0.198	0.491	0.39	–	0.359	0.479	0.503	0.45	0.519	0.588
NCI-H650	0.584	0.545	0.575	0.501	0.59	1.04	1.07	1.07	0.644	0.483	0.42	0.456	0.356	0.804	0.778	0.972	0.92	1.01
NCI-H2085	0.794	0.931	0.798	0.726	0.797	0.776	0.739	0.839	0.704	0.227	0.261	0.267	0.228	0.429	0.426	0.463	0.437	0.498
NCI-H2347	0.453	0.401	0.379	0.357	0.375	1.11	0.935	0.989	0.784	0.318	0.307	0.299	0.308	0.899	0.478	0.737	0.541	0.677
NCI-H1944	0.462	0.459	0.49	0.415	0.464	0.857	0.607	0.899	0.904	0.233	0.203	0.216	0.208	0.353	0.354	0.352	0.315	0.365
